The record followed here is patent US8765779B2, “Tricyclic derivatives and their pharmaceutical use and compositions” (Cephalon, Inc., priority 2009, dated 2014).

Counter-ions that a name gives are not always drawn.

T1 sequence (P50406 whole entry): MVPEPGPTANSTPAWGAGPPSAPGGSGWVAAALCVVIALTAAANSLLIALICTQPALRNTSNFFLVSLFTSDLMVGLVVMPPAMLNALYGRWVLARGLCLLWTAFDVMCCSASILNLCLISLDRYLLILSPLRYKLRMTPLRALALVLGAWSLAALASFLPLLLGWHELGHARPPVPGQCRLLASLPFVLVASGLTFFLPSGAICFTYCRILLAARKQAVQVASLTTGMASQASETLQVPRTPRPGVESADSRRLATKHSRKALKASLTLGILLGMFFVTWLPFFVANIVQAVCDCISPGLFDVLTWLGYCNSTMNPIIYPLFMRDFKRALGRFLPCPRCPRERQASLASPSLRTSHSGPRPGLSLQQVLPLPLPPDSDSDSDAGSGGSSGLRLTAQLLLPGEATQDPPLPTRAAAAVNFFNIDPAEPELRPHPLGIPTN

This assay concerns the target T1, human 5-HT6 receptor (Homo sapiens, UniProt P50406).
T1 construct: host or cells: CHO-K1 cells, stably transfected; membranes prepared in house
Description: Human 5-HT6 Receptor Binding Assay ([3H]LSD displacement, scintillation beads). The following applies: membranes of CHO-K1 cells with recombinant human 5-HT6, 4 nM [3H]LSD; Table 1, class symbols; read-out: h5-HT6 (Ki). As to the method:
Human 5-HT6 Receptor Binding Assay
Membranes were prepared from CHO—K1 cells stably transfected with the human 5-HT6 receptor (Euroscreen; ES-316-C). The cells were grown in Gibco Advanced DMEM-F12 (Cat#12634010) containing 2% dialyzed FBS (Hyclone Cat#SH30079.03). The cells were harvested in phosphate buffered saline (PBS) containing 0.1 mM EDTA and pelleted by centrifugation (1000×g), the supernatant was discarded and the pellets were stored at −80° C. prior to membrane preparation. Membranes were prepared as previously described (J Bio Chem. 1992, 267 (14) 9844-51). Briefly, frozen cell pellet was resuspended in a lysis buffer containing 5 mM Tris-HCl (pH 7.5), 5 mM EDTA and 1 complete EDTA-free protease inhibitor tablet (Roche Applied Science, Indianapolis, Ind.) per 50 mL buffer, and homogenized with a tissue homogenizer. The cell lysate was then centrifuged at 40,000×g for 30 min at 4° C. to collect the membranes. The membrane pellets were washed in membrane buffer (50 mM Tris-HCl (pH 7.5), 0.6 mM EDTA, 5 mM MgCl2, 1 complete EDTA-free protease inhibitor tablet per 50 mL buffer) using a tissue homogenizer. The membranes were centrifuged at 40,000×g for 30 min at 4° C. and the pellets were resuspended in membrane buffer containing 250 mM sucrose, and protein concentration was determined using the Coomassie Plus kit (Pierce Biotechnology, Rockford, Ill.).
Membranes prepared from cells expressing recombinant human 5-HT6 receptor (h5-HT6) were resuspended in assay buffer containing 50 mM Tris HCl, (pH7.4), 4 mM CaCl2, 10 μg/mL saponin, and 0.1% (w/v) ascorbic acid. Membranes were preincubated using 1.75 μg membrane protein and 0.25 mg FlashBlue scintillation beads (PerkinElmer catalogue #FB001) per well at 4° for 30 min. […] Test compounds or assay controls for total and non-specific binding were diluted in DMSO as 100× solutions and serially diluted by half log concentrations on a Perkin Elmer JANUS Automated Workstation. Serotonin (10 μM final concentration) was used to determine non-specific binding in the assay. Plates were read using the Microbeta Trilux 1450 LSC and luminescence counter. Data were analyzed by nonlinear […] using the dose-response equation (variable slope) to calculate IC50 in XLfit4 (ID Business Solutions Inc.): y=(Bottom+((Top−Bottom)/(1+((IC50/x)^Hill slope))))
Ki value was then calculated according to the Cheng-Prusoff method using the equation below (Cheng and Prusoff, 1973): Ki,app=IC50/(1+[radioligand]/Kd))
On to `CC(=O)N(C)CCC1NCCc2c1oc1cc(S(=O)(=O)c3cccc(F)c3)ccc21` (racemic) [Example 538, N-(2-{7-[(3-fluorophenyl)sulfonyl]-1,2,3,4-tetrahydro[1]benzofuro[2,3-c]pyridin-1-yl}ethyl)-N-methylacetamide], for which the Ki (in general, a dissociation constant, usually derived from enzyme kinetics or from competition with a known ligand) was < 500 nM.

With `CC(=O)NCC1NCCc2c1oc1cc(S(=O)(=O)c3cccc(Cl)c3)ccc21` (racemic) [Example 539, N-({7-[(3-chlorophenyl)sulfonyl]-1,2,3,4-tetrahydro[1]benzofuro[2,3-c]pyridin-1-yl}methyl)acetamide], the Ki was < 500 nM.

As to `CC(=O)NCCC1NCCc2c1oc1cc(S(=O)(=O)c3cccc(Cl)c3)ccc21` (racemic) [Example 540, N-(2-{7-[(3-chlorophenyl)sulfonyl]-1,2,3,4-tetrahydro[1]benzofuro[2,3-c]pyridin-1-yl}ethyl)acetamide], the Ki was < 500 nM.

In the case of `CC(=O)N(C)CC1NCCc2c1oc1cc(S(=O)(=O)c3cccc(Cl)c3)ccc21` (racemic) [Example 541, N-({7-[(3-chlorophenyl)sulfonyl]-1,2,3,4-tetrahydro[1]benzofuro[2,3-c]pyridin-1-yl}methyl)-N-methylacetamide], the Ki is < 500 nM.

For the compound `CC(=O)N(C)CCC1NCCc2c1oc1cc(S(=O)(=O)c3cccc(Cl)c3)ccc21` (racemic) [Example 542, N-(2-{7-[(3-chlorophenyl)sulfonyl]-1,2,3,4-tetrahydro[1]benzofuro[2,3-c]pyridin-1-yl}ethyl)-N-methylacetamide], the Ki is < 500 nM.

For `CC(C)Oc1cccc(S(=O)(=O)c2ccc3c(c2)OC2CNCCC32C)c1` (single isomer, unassigned) [Example 20, 4a-methyl-7-{[3-(propan-2-yloxy)phenyl]sulfonyl}-1,2,3,4,4a,9a-hexahydro[1]benzofuro[2,3-c]pyridine], the Ki was < 500 nM.

Regarding `CC(C)Oc1cccc(S(=O)(=O)c2ccc3c(c2)OC2CNCCC32C)c1` (single isomer, unassigned) [Example 21, 4a-methyl-7-{[3-(propan-2-yloxy)phenyl]sulfonyl}-1,2,3,4,4a,9a-hexahydro[1]benzofuro[2,3-c]pyridine], the Ki was < 500 nM.

In the case of `CC(C)Oc1cccc(S(=O)(=O)c2ccc3c4c(oc3c2)C2(CCOC2)NCC4)c1` (single isomer, unassigned) [Example 31, 7-{[3-(propan-2-yloxy)phenyl]sulfonyl}-3,4,4′,5′-tetrahydro-2H-spiro[1-benzofuro[2,3-c]pyridine-1,3′-furan]], the Ki is < 500 nM.

On to `CC(C)Oc1cccc(S(=O)(=O)c2ccc3c4c(oc3c2)C2(CCOC2)NCC4)c1` (single isomer, unassigned) [Example 32, 7-{[3-(propan-2-yloxy)phenyl]sulfonyl}-3,4,4′,5′-tetrahydro-2H-spiro[1-benzofuro[2,3-c]pyridine-1,3′-furan]], for which the Ki was < 500 nM.

Consider `CC(C)Oc1cccc(S(=O)(=O)c2ccc3c4c(oc3c2)C(C)(C(F)F)NCC4)c1` (single isomer, unassigned) [Example 34, 1-(difluoromethyl)-1-methyl-7-{[3-(propan-2-yloxy)phenyl]sulfonyl}-1,2,3,4-tetrahydro[1]benzofuro[2,3-c]pyridine], for which the Ki was < 500 nM.

`CN(C)C(=O)CC1(C)NCCc2c1oc1cc(S(=O)(=O)c3cccc(F)c3)ccc21` (single isomer, unassigned) [Example 50, 2-{7-[(3-fluorophenyl)sulfonyl]-1-methyl-1,2,3,4-tetrahydro[1]benzofuro[2,3-c]pyridin-1-yl}-N,N-dimethylacetamide]: the Ki is < 500 nM.

`CN(C)C(=O)CC1(C)NCCc2c1oc1cc(S(=O)(=O)c3cccc(F)c3)ccc21` (single isomer, unassigned) [Example 51, 2-{7-[(3-fluorophenyl)sulfonyl]-1-methyl-1,2,3,4-tetrahydro[1]benzofuro[2,3-c]pyridin-1-yl}-N,N-dimethylacetamide]: the Ki is < 500 nM.

Take `O=S(=O)(c1cccc(F)c1)c1ccc2c3c(oc2c1)C1(CCOC1)NCC3` (single isomer, unassigned) [Example 52, 7-[(3-fluorophenyl)sulfonyl]-3,4,4′,5′-tetrahydro-2H-spiro[1-benzofuro[2,3-c]pyridine-1,3′-furan]]: the Ki is < 500 nM.

Consider `O=S(=O)(c1cccc(F)c1)c1ccc2c3c(oc2c1)C1(CCOC1)NCC3` (single isomer, unassigned) [Example 53, 7-[(3-fluorophenyl)sulfonyl]-3,4,4′,5′-tetrahydro-2H-spiro[1-benzofuro[2,3-c]pyridine-1,3′-furan]], for which the Ki was < 500 nM.

Take `O=S(=O)(c1cccc(F)c1)c1ccc2c3c(oc2c1)C1(CCOCC1F)NCC3` (single isomer, unassigned) [Example 54, 3′-Fluoro-7-[(3-fluorophenyl)sulfonyl]-2′,3,3′,4,5′,6′-hexahydro-2H-spiro[1-benzofuro[2,3-c]pyridine-1,4′-pyran]]: the Ki is < 500 nM.

As for `CC1OCCC12NCCc1c2oc2cc(S(=O)(=O)c3cccc(F)c3)ccc12` (single isomer, unassigned) [Example 56, 7-[(3-Fluorophenyl)sulfonyl]-2′-methyl-3,4,4′,5′-tetrahydro-2H-spiro[1-benzofuro[2,3-c]pyridine-1,3′-furan]], the Ki was < 500 nM.

Regarding `CC1OCCC12NCCc1c2oc2cc(S(=O)(=O)c3cccc(F)c3)ccc12` (single isomer, unassigned) [Example 57, 7-[(3-Fluorophenyl)sulfonyl]-2′-methyl-3,4,4′,5′-tetrahydro-2H-spiro[1-benzofuro[2,3-c]pyridine-1,3′-furan]], the Ki is < 500 nM.

As to `CC1OCCC12NCCc1c2oc2cc(S(=O)(=O)c3cccc(F)c3)ccc12` (single isomer, unassigned) [Example 58, 7-[(3-Fluorophenyl)sulfonyl]-2′-methyl-3,4,4′,5′-tetrahydro-2H-spiro[1-benzofuro[2,3-c]pyridine-1,3′-furan]], the Ki was < 500 nM.

On to `CC1OCCC12NCCc1c2oc2cc(S(=O)(=O)c3cccc(F)c3)ccc12` (single isomer, unassigned) [Example 59, 7-[(3-Fluorophenyl)sulfonyl]-2′-methyl-3,4,4′,5′-tetrahydro-2H-spiro[1-benzofuro[2,3-c]pyridine-1,3′-furan]], for which the Ki is < 500 nM.

Take `CC1OCCC12NCCc1c2oc2cc(S(=O)(=O)c3cccc(F)c3)ccc12` (single isomer, unassigned) [Example 60, 7-[(3-Fluorophenyl)sulfonyl]-2′-methyl-3,4,4′,5′-tetrahydro-2H-spiro[1-benzofuro[2,3-c]pyridine-1,3′-furan]]: the Ki is < 500 nM.

For `CC1OCCC12NCCc1c2oc2cc(S(=O)(=O)c3cccc(F)c3)ccc12` (single isomer, unassigned) [Example 61, 7-[(3-Fluorophenyl)sulfonyl]-2′-methyl-3,4,4′,5′-tetrahydro-2H-spiro[1-benzofuro[2,3-c]pyridine-1,3′-furan]], the Ki is < 500 nM.

For `O=S(=O)(c1ccccc1)c1ccc2c3c(oc2c1)[C@@]1(CCOC1)NCC3` (single isomer, unassigned) [Example 108], the Ki was < 500 nM.

Consider `O=S(=O)(c1ccc2c3c(oc2c1)[C@@]1(CCOC1)NCC3)c1cc(F)ccc1F` (single isomer, unassigned) [Example 109], for which the Ki is < 500 nM.

On to `O=S(=O)(c1ccccc1)c1ccc2c3c(oc2c1)[C@]1(CCOC1)NCC3` (single isomer, unassigned) [Example 110], for which the Ki was < 500 nM.

For the compound `O=S(=O)(c1ccc2c3c(oc2c1)[C@]1(CCOC1)NCC3)c1cc(F)ccc1F` (single isomer, unassigned) [Example 111], the Ki is < 500 nM.

`O=S(=O)(c1cccc(Cl)c1)c1ccc2c3c([nH]c2c1)C1(CCCOC1)NCC3` (single isomer, unassigned) [Example 316]: the Ki is < 500 nM.

With `O=S(=O)(c1cccc(OC(F)(F)F)c1)c1ccc2c3c([nH]c2c1)C1(CCCOC1)NCC3` (single isomer, unassigned) [Example 319], the Ki is < 500 nM.

With `CC(C)Oc1cc(F)cc(S(=O)(=O)c2ccc3c(c2)OC2CNCCC32)c1` (single isomer, unassigned) [Example 364, 7-(3-Fluoro-5-isopropoxy-benzenesulfonyl)-1,2,3,4,4a,9a-hexahydro-benzo[4,5]furo[2,3-c]pyridine hydrochloride], the inhibition constant Ki is < 500 nM.
